EC50 and IC50 data for 13 molecules are collected here from US20240217951A1, “PCSK9 INHIBITORS AND METHODS OF USE THEREOF” (AstraZeneca AB, priority 2022, published 2024).

Usually IC50 stands for the midpoint of a concentration-inhibition curve.

The structures appear in SMILES notation.

Test [1] addresses T1, PCSK9 (Homo sapiens, UniProt Q8NBP7, G670E/V474I). As to the kind of experiment: Assay 3 - PCSK9 LDL-C uptake assay in HepG2 cells. The class given is cell-based. Set-up: TEV cleavage site (C); His6 (C); host or cells: added to HepG2 cells (ATCC #HB-8065). The conditions noted are these: 125 nM PCSK9, pHrodo Red-LDL, read-out: Assay 3 LDL uptake potency. The text has this:
Assay 3—PCSK9 LDL-C Uptake Assay
This assay measures for PCSK9 antagonist activity based on a test compound's capacity to restore LDL-C-uptake in HepG2 cells. The assay is based on exogenous PCSK9 and LDL-C complexed with a pH-sensitive dye. Outside the cells, at neutral pH, the pHrodo Red-LDL is dimly fluorescent but upon LDLR mediated endocytosis it fluoresces brightly. PCSK9 traffics the LDLR to intracellular degradation and reduces uptake of LDL-C. Inhibition of PCSK9 reduces LDLR degradation and the increased LDL-C uptake is quantified by fluorescence microscopy.
Preparation of Assay Reagents
Cell medium: MEM supplemented with 10% FBS, 1×NEAA and Sodium Pyruvate Assay medium: OptiMem supplemented with penicillin/streptomycin
Cells: HepG2 (ATCC #HB-8065)
Step by Step Protocol for Running the Assay:
• 1. Cryopreserved HepG2 cells were thawed in assay medium and centrifuged for 5 min at 250 g. Supernatant was discarded and the cell pellet resuspended in cell medium and counted with a Nucleocounter. Cells were again centrifuged 5 min at 250 g and the pellet was resuspended to 500000 cells/mL in assay medium. • 2. 20 μL of above cell mix was dispensed into black pclear TC treated 384 well plates with Multidrop Combi and left at room temperature for 20 minutes. • 3. Plates were incubated at 37° C., 5% CO2 for 24 h
• 1. Test compounds were prepared in concentration response in DMSO with a half-log dilution factor in DMSO in Echo 384 LDV plates starting at 10 mM. • 2. 30 nL of above test compounds were dispensed with Echo 655 to cells for a top concentration of 10 μM • 3. 10 μL PCSK9 in assay medium was dispensed to cells with Multidrop Combi for 125 nM final concentration in the wells. • 4. Plates were incubated at 37° C., 5% CO2 for 24 h
• 1. 10 μL pHrodo Red-LDL in assay medium was dispensed to cells with Multidrop Combi for 6 μg/mL • 2. Plates were incubated at 37° C., 5% CO2 and imaged with the Incucyte S3 after 4 h and 24 h
Image data was processed using Incucyte 2021, a software to identify cells and red fluorescent intensity. Screener was used to further process data. Data was normalized as % effect of the signal between median values of the on-plate controls of DMSO and 100 nM Evolocumab according to the formula % effect=−100*(x−DMSO)/(Evolocumab−DMSO) where x equals the measured signal. Concentration response data of the normalized values were fitted using a four-parameter logistic fit.

In test [2] the target is T1, PCSK9. As to the kind of experiment: biochemical.
Test [3] addresses T2, potassium ion channel hERG (human Ether-á-go-go-Related Gene) (Homo sapiens, UniProt Q12809).
T2 construct: expressed in transfected cells; host or cells: Chinese hamster ovary K1 (CHO)
In words: Assay 5 - hERG assay (SyncroPatch 384PE patch clamp, CHO cells). The class given is cell-based. The conditions noted are these: geometric mean; CHO cells over-expressing hERG; read-out: Assay 5 (hERG Hu CHO IF EPh CR-Syncro) GMean IC50. On the procedure: Assay 5—hERG Assay (Human Ether-á-go-go-Related Gene)
This assay (human Ether-á-go-go-Related Gene) measures activity of the compounds at the potassium ion channel hERG (human Ether-á-go-go-Related Gene).
Experiments were performed on the SyncroPatch 384PE high throughput patch clamp platform at room temperature and medium resistance chips with 4 patch holes per site. Chinese hamster ovary K1 (CHO) cell lines over-expressing the ion channel of choice (hERG) were used in assay-ready format and kept in liquid nitrogen or were used from live culture. Cells were either thawed and diluted in HBSS or were detached from flasks and resuspended in HBSS. HBSS comprised 140 mM NaCl, 4 mM KCl, 10 mM HEPES and 5 mM Glucose (pH7.4). The internal patch clamp solution was KF 120 mM, KCl 20 mM, HEPES 10 mM, EGTA 10 mM, and 25 PM Escin (pH 7.2). After the sealing process was complete, the external solution was exchanged for external patch clamp solution comprising NaCl 80 mM, KCl 4 mM, HEPES 10 mM, CaCl2 2 mM, MgCl2 1 mM, glucose 5 mM, and NMDG 60 mM (pH 7.4). All solutions were stored at room temperature, except Escin, which was stored at 4° C. All test compounds were dispensed in greiner-bio 384 well plates and tested in a 6 point cumulative assay (final DMSO concentration 0.33%). Only wells that passed previously agreed acceptance criteria for this platform were used in this analysis (30 MegaOhm seal resistance, Z prime >0.4 and current size >0.2 nA).
A general note: The hERG channel carries a current that helps repolarise heart muscle cells.

The target of test [4] is GSK3β (Glycogen synthase kinase-3 beta) (Homo sapiens, UniProt P49841). In words: Assay 6 - GSK3β assay (ThermoFisher Z-Lyte). The class given is biochemical. The conditions noted are these: geometric mean; ATP Conc: 10 μM; read-out: Assay 6 (GSK3β FRET-Z-Lyte CR) GMean IC50 (μM) ATP Conc: 10. On the procedure:
Assay 6—GSK3β Assay (ThermoFisher Assay)
This assay measures the activity of the compounds at GSK3β (Glycogen synthase kinase-3 beta).
The test compounds were screened in 1% DMSO (final) in the well. For 10 point titrations, 3-fold serial dilutions are conducted from the starting concentration of 10 μM.
Bar-coded Corning, low volume NBS, black 384-well plate • 1. 2.5 μL—4× Test Compound or 100 nL 100× plus 2.4 μL kinase buffer • 2. 5 μL—2× Peptide/Kinase Mixture • 3. 2.5 μL—4×ATP Solution • 4. 30-second plate shake • 5. 60-minute Kinase Reaction incubation at room temperature • 6. 5 μL—Development Reagent Solution • 7. 30-second plate shake • 8. 60-minute Development Reaction incubation at room temperature • 9. Read on fluorescence plate reader and analyse the data
In step 2, the 2×GSK3β (GSK3 beta)/Ser/Thr (Glycogen synthase kinase-3 beta/Serine/Threonine) 09 mixture is prepared in 50 mM HEPES (4-(2-hydroxyethyl)-1-piperazineethanesulfonic acid) pH 7.5, 0.01% BRIJ-35, 10 mM MgCl2, 1 mM EGTA (egtazic acid). The final 10 μL Kinase Reaction consists of 0.22-0.92 ng GSK3β (GSK3 beta) and 2 μM Ser/Thr 09 in 50 mM HEPES pH 7.5, 0.01% BRIJ-35, 10 mM MgCl2, 1 mM EGTA.
In step 3 the ATP Solution is diluted to a 4× working concentration in Kinase Buffer (50 mM HEPES pH 7.5, 0.01% BRIJ-35, 10 mM MgCl2, 1 mM EGTA).
In Step 6 the Development Reagent is diluted 1:512 in Development Buffer (10× Novel PKC Lipid Mix: 2 mg/mL Phosphatidyl Serine, 0.2 mg/mL DAG in 20 mM HEPES, pH 7.4, 0.3% CHAPS).
SelectScreen® Kinase Profiling Service uses XLfit from IDBS. The dose response curve is curve fit to model number 205 (sigmoidal dose-response model).

T1 sequence (Q8NBP7 with tags, fused parts or gaps V474I/G670E): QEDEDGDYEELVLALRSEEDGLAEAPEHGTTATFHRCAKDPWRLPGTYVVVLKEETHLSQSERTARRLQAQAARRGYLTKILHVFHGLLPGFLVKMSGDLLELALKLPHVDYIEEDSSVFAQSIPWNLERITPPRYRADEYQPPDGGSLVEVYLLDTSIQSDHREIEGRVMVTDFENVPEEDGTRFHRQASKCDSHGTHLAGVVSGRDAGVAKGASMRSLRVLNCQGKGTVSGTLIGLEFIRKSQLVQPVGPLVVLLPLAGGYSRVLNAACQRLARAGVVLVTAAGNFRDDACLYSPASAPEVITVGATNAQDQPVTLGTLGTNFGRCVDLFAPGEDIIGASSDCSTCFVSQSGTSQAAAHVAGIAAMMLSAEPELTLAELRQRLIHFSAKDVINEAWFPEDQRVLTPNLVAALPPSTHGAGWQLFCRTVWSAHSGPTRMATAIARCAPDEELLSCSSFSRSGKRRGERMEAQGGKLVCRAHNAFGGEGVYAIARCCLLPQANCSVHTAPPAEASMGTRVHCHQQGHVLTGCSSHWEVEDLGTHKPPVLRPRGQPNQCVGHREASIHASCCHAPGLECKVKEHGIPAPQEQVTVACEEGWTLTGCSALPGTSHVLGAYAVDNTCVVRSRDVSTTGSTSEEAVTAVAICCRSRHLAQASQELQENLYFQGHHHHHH
T2 sequence (Q12809 whole entry): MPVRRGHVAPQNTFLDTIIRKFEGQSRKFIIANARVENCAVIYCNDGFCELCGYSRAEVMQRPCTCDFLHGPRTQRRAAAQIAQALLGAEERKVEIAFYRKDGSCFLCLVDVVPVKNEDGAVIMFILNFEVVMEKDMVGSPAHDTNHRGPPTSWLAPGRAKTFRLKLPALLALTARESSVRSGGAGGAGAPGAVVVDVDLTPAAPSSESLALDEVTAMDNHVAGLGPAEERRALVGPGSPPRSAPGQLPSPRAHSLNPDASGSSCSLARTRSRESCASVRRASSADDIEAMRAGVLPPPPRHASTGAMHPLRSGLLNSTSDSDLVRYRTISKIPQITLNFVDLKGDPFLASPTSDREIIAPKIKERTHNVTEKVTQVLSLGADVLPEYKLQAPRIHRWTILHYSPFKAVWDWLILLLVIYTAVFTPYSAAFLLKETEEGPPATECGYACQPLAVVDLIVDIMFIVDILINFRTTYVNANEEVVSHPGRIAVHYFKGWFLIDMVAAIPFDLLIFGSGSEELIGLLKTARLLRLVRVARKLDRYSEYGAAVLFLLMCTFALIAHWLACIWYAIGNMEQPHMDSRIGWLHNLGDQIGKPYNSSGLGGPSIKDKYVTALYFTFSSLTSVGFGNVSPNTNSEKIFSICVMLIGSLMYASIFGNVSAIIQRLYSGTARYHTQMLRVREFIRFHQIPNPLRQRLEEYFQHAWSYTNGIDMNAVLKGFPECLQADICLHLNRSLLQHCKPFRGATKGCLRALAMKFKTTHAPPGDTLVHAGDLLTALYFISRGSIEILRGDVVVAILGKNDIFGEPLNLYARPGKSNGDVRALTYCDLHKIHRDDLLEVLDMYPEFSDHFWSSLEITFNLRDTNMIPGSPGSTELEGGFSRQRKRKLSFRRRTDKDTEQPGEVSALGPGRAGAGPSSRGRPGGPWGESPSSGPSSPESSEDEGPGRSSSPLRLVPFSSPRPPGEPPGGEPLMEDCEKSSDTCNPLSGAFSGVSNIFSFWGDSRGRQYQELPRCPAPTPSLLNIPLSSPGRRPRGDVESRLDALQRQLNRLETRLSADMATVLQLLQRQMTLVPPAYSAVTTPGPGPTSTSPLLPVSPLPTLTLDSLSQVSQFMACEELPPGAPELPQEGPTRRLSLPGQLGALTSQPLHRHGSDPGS
GSK3β (Glycogen synthase kinase-3 beta), sequence (P49841 whole entry): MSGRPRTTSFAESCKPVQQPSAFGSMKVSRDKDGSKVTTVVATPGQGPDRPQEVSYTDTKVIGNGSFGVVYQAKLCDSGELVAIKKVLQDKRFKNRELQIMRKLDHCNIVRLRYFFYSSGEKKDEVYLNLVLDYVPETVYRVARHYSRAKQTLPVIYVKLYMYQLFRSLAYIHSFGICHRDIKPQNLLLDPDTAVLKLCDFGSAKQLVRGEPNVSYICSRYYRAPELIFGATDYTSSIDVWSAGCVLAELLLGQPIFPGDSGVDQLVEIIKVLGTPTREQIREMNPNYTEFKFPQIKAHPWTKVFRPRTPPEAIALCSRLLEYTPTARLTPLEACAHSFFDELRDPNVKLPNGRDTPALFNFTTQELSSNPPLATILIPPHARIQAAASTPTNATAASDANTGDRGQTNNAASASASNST

Turning to `COc1cccn(-c2ccc(N[C@H]3CC[C@H](Nc4cnc(C)cn4)C3)nc2)c1=O` (racemic) [Example 170, rel-3-Methoxy-6′-(((1R,3R)-3-((5-methylpyrazin-2-yl)amino)cyclopentyl)amino)-2H-[1,3′-bipyridin]-2-one], the EC50 at PCSK9 [1] was found to be 200 nM. The IC50 against PCSK9 [2] was 11 nM; in test [3], more than 40.1 µM; in test [4] it was 7 µM.
In the same order, the values of `COc1cccn(-c2ccc(N[C@H]3CC[C@H](Nc4cnc(C)cn4)C3)nc2)c1=O` (relative stereo) [Example 172, rel-3-Methoxy-6′-(((1R,3R)-3-((5-methylpyrazin-2-yl)amino)cyclopentyl)amino)-2H-[1,3′-bipyridin]-2-one] are 100 nM, 5.3 nM, more than 40.1 µM and 3.7 µM.
The matching figures for `Cc1ncc(N[C@H]2CC[C@H](Nc3ccc(-n4c(=O)n(C)c5ccccc54)cn3)C2)nc1C` [Example 11, 1-(6-(((1S,3S)-3-((5,6-Dimethylpyrazin-2-yl)amino)cyclopentyl)amino)pyridin-3-yl)-3-methyl-1,3-dihydro-2H-benzo[d]imidazol-2-one]: 300 nM, 3.2 nM, 20.2 µM and more than 10 µM.
Consider `COc1cccn(-c2ccc(N[C@H]3CC[C@H](Nc4cnc(C)c(C)n4)C3)nc2)c1=O` [Example 12, 6′-(((1S,3S)-3-((5,6-Dimethylpyrazin-2-yl)amino)cyclopentyl)amino)-3-methoxy-2H-[1,3′-bipyridin]-2-one], for which, at PCSK9 [1], the EC50 came out at 100 nM. Moreover, the values for the IC50 (against PCSK9 [2]; in test [3]; in test [4]) were 13 nM, more than 40 µM and more than 10 µM, respectively.
In the same order, the values of `COc1cccn(-c2ccc(N[C@H]3CC[C@H](Nc4cnc(Cl)cn4)C3)nc2)c1=O` [Example 13, 6′-(((1S,3S)-3-((5-Chloropyrazin-2-yl)amino)cyclopentyl)amino)-3-methoxy-2H-[1,3′-bipyridin]-2-one] are 200 nM, 4 nM, 35.6 µM and more than 10 µM.
On to `O=c1ccc(-c2nnn[nH]2)cn1-c1ccc(N[C@H]2CC[C@H](Nc3cnc(Cl)cn3)C2)nc1` [Example 179, 6′-(((1S,3S)-3-((5-Chloropyrazin-2-yl)amino)cyclopentyl)amino)-5-(1H-tetrazol-5-yl)-2H-[1,3′-bipyridin]-2-one], for which, on PCSK9 [1], the EC50 turned out to be 100 nM. The IC50 stood at 4.7 nM at PCSK9 [2] and 6.9 µM in test [4].
Turning to `Cc1cnc(N[C@H]2CC[C@H](Nc3ccc(-n4nccc(C)c4=O)cn3)C2)cn1` [Example 227, 4-Methyl-2-(6-(((1S,3S)-3-((5-methylpyrazin-2-yl)amino)cyclopentyl)amino)pyridin-3-yl)pyridazin-3 (2H)-one], the IC50 is 12 nM against PCSK9 [2], more than 40.1 µM in test [3] and more than 10 µM in test [4].
In the same order, the values of `Cc1cnc(N[C@H]2CC[C@H](Nc3ccc(-n4nc(Cl)ccc4=O)cn3)C2)cn1` [Example 233, 6-Chloro-2-(6-(((1S,3S)-3-((5-methylpyrazin-2-yl)amino)cyclopentyl)amino)pyridin-3-yl)pyridazin-3 (2H)-one] are 24 nM, more than 40.1 µM and more than 10 µM.
In the same order, the values of `O=c1[nH]ccnc1N[C@H]1CC[C@H](Nc2ccc(-n3ccccc3=O)cn2)C1` [Example 252, 6′-(((1S,3S)-3-((3-Oxo-3,4-dihydropyrazin-2-yl)amino)cyclopentyl)amino)-2H-[1,3′-bipyridin]-2-one] are 2580 nM, more than 40.1 µM and more than 10 µM.
`Cc1cnc(N[C@H]2CC[C@H](Nc3ccc(-n4ccccc4=O)cn3)C2)c(=O)[nH]1` [Example 253, 6′-(((1S,3S)-3-((5-Methyl-3-oxo-3,4-dihydropyrazin-2-yl)amino)cyclopentyl)amino)-2H-[1,3′-bipyridin]-2-one]: the IC50 on PCSK9 [2] was 307 nM; in test [3], more than 40.1 µM; in test [4], more than 10 µM.
The matching figures for `Cc1cnc(N[C@H]2CC[C@H](Nc3ccc(N4C(=O)CCc5ccccc54)cn3)C2)cn1` [Example 274, 1-(6-(((1S,3S)-3-((5-Methylpyrazin-2-yl)amino)cyclopentyl)amino)pyridin-3-yl)-3,4-dihydroquinolin-2 (1H)-one]: 8.1 nM, 17.1 µM and more than 10 µM.
In the same order, the values of `Cc1cnc(N[C@H]2CC[C@H](Nc3ccc(N4C(=O)CCc5cccnc54)cn3)C2)cn1` [Example 276, 1-(6-(((1S,3S)-3-((5-Methylpyrazin-2-yl)amino)cyclopentyl)amino)pyridin-3-yl)-3,4-dihydro-1,8-naphthyridin-2 (1H)-one] are 80 nM, more than 40 µM and more than 10 µM.
On to `Cc1cnc(N[C@H]2CC[C@H](Nc3ccc(-n4nccc(OC(F)F)c4=O)cn3)C2)cn1` [Example 282, 4-(Difluoromethoxy)-2-(6-(((1S,3S)-3-((5-methylpyrazin-2-yl)amino)cyclopentyl)amino)pyridin-3-yl)pyridazin-3 (2H)-one], for which the figures for the IC50 (against PCSK9 [2]; in test [3]; in test [4]) were 10 nM, more than 40.1 µM and more than 10 µM, respectively.
